Assays:
NK3 = target: T1, NK3 (Homo sapiens, UniProt P29371); assay: Signal transduction (ST), intracellular Ca++ (FLIPR), NK3; type: cell-based; conditions: read-out: pIC50 NK3 (converted)
T1 sequence (P29371 1-465): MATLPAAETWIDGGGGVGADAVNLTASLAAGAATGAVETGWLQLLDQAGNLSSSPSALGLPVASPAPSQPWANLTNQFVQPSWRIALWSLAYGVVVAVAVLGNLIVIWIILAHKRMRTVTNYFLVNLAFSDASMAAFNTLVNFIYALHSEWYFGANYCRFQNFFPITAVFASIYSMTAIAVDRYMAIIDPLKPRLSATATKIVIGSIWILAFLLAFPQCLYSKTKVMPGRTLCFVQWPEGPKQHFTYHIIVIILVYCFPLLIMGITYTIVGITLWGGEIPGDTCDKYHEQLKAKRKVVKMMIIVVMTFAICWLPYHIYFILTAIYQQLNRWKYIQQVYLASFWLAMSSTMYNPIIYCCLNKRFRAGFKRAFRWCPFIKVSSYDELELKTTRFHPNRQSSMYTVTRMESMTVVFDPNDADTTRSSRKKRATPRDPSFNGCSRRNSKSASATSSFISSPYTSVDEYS

NK1 = NK1 (Homo sapiens, UniProt P25103); assay: Signal transduction (ST), intracellular Ca++ (FLIPR), NK1 antagonistic activity; type: cell-based; conditions: read-out: pIC50 NK1 (converted)
Chain of NK1 (P25103 whole entry): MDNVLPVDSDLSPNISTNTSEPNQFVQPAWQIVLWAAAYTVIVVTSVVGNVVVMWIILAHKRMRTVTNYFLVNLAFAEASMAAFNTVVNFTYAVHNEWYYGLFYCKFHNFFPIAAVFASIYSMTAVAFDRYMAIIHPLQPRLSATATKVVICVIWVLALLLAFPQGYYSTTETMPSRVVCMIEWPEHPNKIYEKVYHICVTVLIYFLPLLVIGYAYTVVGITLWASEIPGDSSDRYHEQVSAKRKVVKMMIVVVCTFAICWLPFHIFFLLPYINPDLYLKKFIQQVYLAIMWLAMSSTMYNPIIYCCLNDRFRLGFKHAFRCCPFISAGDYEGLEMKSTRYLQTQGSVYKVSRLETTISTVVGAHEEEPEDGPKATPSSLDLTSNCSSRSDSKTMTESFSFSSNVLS
Outline: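 Antagonist IC50 was fitted by non-linear regression of peak intracellular Ca++ signals measured on FLIPR after agonist challenge. Beforehand, Fluo3-loaded confluent cells received antagonists over a concentration range for 20 min at room temperature in Ca++ Krebs buffer, pH 7.4.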

Row | SMILES | IC50 (NK3) | IC50 (NK1)
1 | O=C(CN1CCOC1=O)N1CCC(N2CCN([C@H]3CCN(C(=O)c4cc(C(F)(F)F)cc(C(F)(F)F)c4)[C@H](Cc4ccccc4)C3)CC2)C1 (stereo partly shown) [Compound 215] | 5010 nM | 31.6 nM
2 | O=C(c1snnc1CO)N1CCC(N2CCN(C3CCN(C(=O)c4cc(C(F)(F)F)cc(C(F)(F)F)c4)C(Cc4ccccc4)C3)CC2)C1 (stereo not shown) [Compound 166] | 1580 nM | 6.31 nM
3 | O=C(c1cc(C(F)(F)F)cc(C(F)(F)F)c1)N1CCC(N2CCN(C3CCN(S(=O)(=O)c4cccs4)C3)CC2)CC1Cc1ccc(F)c(F)c1 (single isomer, unassigned) [Compound 234] | 3160 nM | 10 nM
4 | COc1cc(CC(=O)N2CCC(N3CCN([C@H]4CCN(C(=O)c5cc(C(F)(F)F)cc(C(F)(F)F)c5)[C@H](Cc5ccccc5)C4)CC3)C2)cc(OC)c1OC (stereo partly shown) [Compound 65] | 3160 nM | 12.6 nM
5 | O=C(C1CCC1)N1CCC(N2CCN([C@H]3CCN(C(=O)c4cc(C(F)(F)F)cc(C(F)(F)F)c4)[C@H](Cc4ccccc4)C3)CC2)C1 (stereo partly shown) [Compound 179] | 1580 nM | 6.31 nM
6 | O=C(C1CCOC1)N1CCC(N2CCN(C3CCN(C(=O)c4cc(C(F)(F)F)cc(C(F)(F)F)c4)C(Cc4ccc(F)c(F)c4)C3)CC2)C1 (single isomer, unassigned) [Compound 227] | 1580 nM | 3.16 nM
7 | CC(C)(C)OC(=O)N1CCC(C(=O)N2CCC(N3CCN([C@H]4CCN(C(=O)c5cc(C(F)(F)F)cc(C(F)(F)F)c5)[C@H](Cc5ccccc5)C4)CC3)C2)C1 (stereo partly shown) [Compound 228] | 6310 nM | 25.1 nM
8 | Cc1nc(C)c(C(=O)N2CCC(N3CCN([C@H]4CCN(C(=O)c5cc(C(F)(F)F)cc(C(F)(F)F)c5)[C@H](Cc5ccccc5)C4)CC3)C2)s1 (stereo partly shown) [Compound 50] | 3160 nM | 6.31 nM
9 | O=C1CCCN1CC(=O)N1CCC(N2CCN([C@H]3CCN(C(=O)c4cc(C(F)(F)F)cc(C(F)(F)F)c4)[C@H](Cc4ccccc4)C3)CC2)C1 (stereo partly shown) [Compound 214] | 3980 nM | 20 nM
10 | O=C(C1CC1)N1CCC(N2CCN(C3CCN(C(=O)c4cc(C(F)(F)F)cc(C(F)(F)F)c4)C(Cc4ccc(F)c(F)c4)C3)CC2)C1 (single isomer, unassigned) [Compound 231] | 3160 nM | 6.31 nM
11 | CC(C)N1CC(CN2CCC(N3CCN(C4CCN(C(=O)c5cc(C(F)(F)F)cc(C(F)(F)F)c5)C(Cc5ccccc5)C4)CC3)C2)OC1=O (stereo not shown) [Compound 385] | 3980 nM | 31.6 nM
12 | O=C(c1cc(C(F)(F)F)cc(C(F)(F)F)c1)N1CC[C@H](N2CCN(C3CCN(c4nc5ccccc5s4)C3)CC2)C[C@H]1Cc1ccccc1 (stereo partly shown) [Compound 7] | 316 nM | 200 nM
13 | CC(C)(C)OC(=O)N1CCC(C(=O)N2CCC(N3CCN([C@H]4CCN(C(=O)c5cc(C(F)(F)F)cc(C(F)(F)F)c5)[C@H](Cc5ccccc5)C4)CC3)C2)CC1 (stereo partly shown) [Compound 210] | 7940 nM | 15.8 nM
14 | CC(C)(C)CC(=O)N1CCC(N2CCN([C@H]3CCN(C(=O)c4cc(C(F)(F)F)cc(C(F)(F)F)c4)[C@H](Cc4ccccc4)C3)CC2)C1 (stereo partly shown) [Compound 200] | 398 nM | 7.94 nM
15 | CC(=O)OCC(=O)N1CCC(N2CCN(C3CCN(C(=O)c4cc(C(F)(F)F)cc(C(F)(F)F)c4)C(Cc4ccccc4)C3)CC2)C1 (stereo not shown) [Compound 389] | 6310 nM | 15.8 nM
16 | Cc1nnsc1C(=O)N1CCC(N2CCN(C3CCN(C(=O)c4cc(C(F)(F)F)cc(C(F)(F)F)c4)C(Cc4ccc(F)c(F)c4)C3)CC2)C1 (single isomer, unassigned) [Compound 236] | 5010 nM | 3.98 nM
17 | O=C(C1COC2CCCCC2O1)N1CCC(N2CCN([C@H]3CCN(C(=O)c4cc(C(F)(F)F)cc(C(F)(F)F)c4)[C@H](Cc4ccccc4)C3)CC2)C1 (stereo partly shown) [Compound 99] | 3160 nM | 7.94 nM
18 | CC1(C)OCC(CNC(=C[N+](=O)[O-])N2CCC(N3CCN([C@H]4CCN(C(=O)c5cc(C(F)(F)F)cc(C(F)(F)F)c5)[C@H](Cc5ccccc5)C4)CC3)C2)O1 (stereo partly shown) [Compound 376] | 3980 nM | 25.1 nM
19 | Cc1ccccc1-n1cncc1CN1CCC(N2CCN([C@H]3CCN(C(=O)c4cc(C(F)(F)F)cc(C(F)(F)F)c4)[C@H](Cc4ccccc4)C3)CC2)C1 (stereo partly shown) [Compound 9] | 1260 nM | 39.8 nM
20 | O=C(c1cc(C(F)(F)F)cc(C(F)(F)F)c1)N1CCC(N2CCN(C3CCN(c4noc5ccccc45)C3)CC2)CC1Cc1ccccc1 (stereo not shown) [Compound 204] | 2510 nM | 25.1 nM
21 | O=C(C1CC1)N1CCC(N2CCN([C@@H]3CCN(C(=O)c4cc(C(F)(F)F)cc(C(F)(F)F)c4)[C@H](Cc4ccc(Cl)c(Cl)c4)C3)CC2)C1 (relative stereo) [Compound 143] | 3160 nM | 39.8 nM
22 | Cc1nc2c(o1)CCn1ccnc1C2N1CCC(N2CCN(C3CCN(C(=O)c4cc(C(F)(F)F)cc(C(F)(F)F)c4)C(Cc4ccccc4)C3)CC2)C1 (stereo not shown) [Compound 375] | 3980 nM | 12.6 nM
23 | Cc1nnsc1C(=O)N1CCC(N2CCN(C3CCN(C(=O)c4cc(C(F)(F)F)cc(C(F)(F)F)c4)C(Cc4ccc(Cl)c(Cl)c4)C3)CC2)C1 (stereo not shown) [Compound 161] | 3160 nM | 12.6 nM

The next lines start with the values.

Row | IC50 (NK3) | IC50 (NK1) | SMILES
24 | 2510 nM | 31.6 nM | O=C(C(c1ccccc1)N1CCCC1)N1CCC(N2CCN(C3CCN(C(=O)c4cc(C(F)(F)F)cc(C(F)(F)F)c4)C(Cc4ccccc4)C3)CC2)C1 (stereo not shown) [Compound 108]
25 | 2000 nM | 31.6 nM | CC(C)Oc1cccc(C(=O)N2CCC(N3CCN([C@H]4CCN(C(=O)c5cc(C(F)(F)F)cc(C(F)(F)F)c5)[C@H](Cc5ccccc5)C4)CC3)C2)c1 (stereo partly shown) [Compound 15]
26 | 398 nM | 12.6 nM | N#Cc1ccccc1C(=O)N1CCC(N2CCN(C3CCN(C(=O)c4cc(C(F)(F)F)cc(C(F)(F)F)c4)C(Cc4ccccc4)C3)CC2)C1 (stereo not shown) [Compound 195]
27 | 2000 nM | 12.6 nM | CN(C)C(=O)N1CCC(N2CCN([C@H]3CCN(C(=O)c4cc(C(F)(F)F)cc(C(F)(F)F)c4)[C@H](Cc4ccccc4)C3)CC2)C1 (stereo partly shown) [Compound 145]
28 | 3160 nM | 39.8 nM | O=C(c1snnc1-c1ccccc1)N1CCC(N2CCN([C@H]3CCN(C(=O)c4cc(C(F)(F)F)cc(C(F)(F)F)c4)[C@H](Cc4ccccc4)C3)CC2)C1 (stereo partly shown) [Compound 53]
29 | 794 nM | 39.8 nM | O=C(c1cccc2ccccc12)N1CCC(N2CCN([C@H]3CCN(C(=O)c4cc(C(F)(F)F)cc(C(F)(F)F)c4)[C@H](Cc4ccccc4)C3)CC2)C1 (stereo partly shown) [Compound 54]
30 | 398 nM | 10 nM | O=C(c1ccccc1Cl)N1CCC(N2CCN(C3CCN(C(=O)c4cc(C(F)(F)F)cc(C(F)(F)F)c4)C(Cc4ccccc4)C3)CC2)C1 (single isomer, unassigned) [Compound 160]
31 | 2510 nM | 25.1 nM | COc1cccc(OC)c1C(=O)N1CCC(N2CCN([C@H]3CCN(C(=O)c4cc(C(F)(F)F)cc(C(F)(F)F)c4)[C@H](Cc4ccccc4)C3)CC2)C1 (stereo partly shown) [Compound 18]
32 | 2510 nM | 63.1 nM | COCC(=O)N1CCC(N2CCN(C3CCN(C(=O)c4cc(C(F)(F)F)cc(C(F)(F)F)c4)C(Cc4ccccc4)C3)CC2)C1 (stereo not shown) [Compound 177]
33 | 5010 nM | 12.6 nM | O=C(C1COc2ccccc2O1)N1CCC(N2CCN([C@H]3CCN(C(=O)c4cc(C(F)(F)F)cc(C(F)(F)F)c4)[C@H](Cc4ccccc4)C3)CC2)C1 (stereo partly shown) [Compound 98]
34 | 3160 nM | 126 nM | O=C(c1cc2ccccc2s1)N1CCC(N2CCN([C@H]3CCN(C(=O)c4cc(C(F)(F)F)cc(C(F)(F)F)c4)[C@H](Cc4ccccc4)C3)CC2)C1 (stereo partly shown) [Compound 63]
35 | 631 nM | 31.6 nM | O=C(c1csnn1)N1CCC(N2CCN([C@H]3CCN(C(=O)c4cc(C(F)(F)F)cc(C(F)(F)F)c4)[C@H](Cc4ccccc4)C3)CC2)C1 (stereo partly shown) [Compound 52]
36 | 1260 nM | 126 nM | O=C(c1ccccc1Cl)N1CCC(N2CCN(C3CCN(C(=O)c4cc(C(F)(F)F)cc(C(F)(F)F)c4)C(Cc4ccccc4)C3)CC2)C1 (single isomer, unassigned) [Compound 87]
37 | 2510 nM | 5.01 nM | Cc1nnsc1C(=O)N1CCC(N2CCN(C3CCN(C(=O)c4cc(C(F)(F)F)cc(C(F)(F)F)c4)C(Cc4ccccc4)C3)CC2)C1 (single isomer, unassigned) [Compound 381]
38 | 2510 nM | 31.6 nM | O=C(c1cnc2ccccc2n1)N1CCC(N2CCN([C@H]3CCN(C(=O)c4cc(C(F)(F)F)cc(C(F)(F)F)c4)[C@H](Cc4ccccc4)C3)CC2)C1 (stereo partly shown) [Compound 60]
39 | 501 nM | 12.6 nM | O=C(C1CC1)N1CCC(N2CCN(C3CCN(C(=O)c4cc(C(F)(F)F)cc(C(F)(F)F)c4)C(Cc4ccccc4)C3)CC2)C1 (single isomer, unassigned) [Compound 70]
40 | 1580 nM | 126 nM | O=C(c1ccccc1)N1CCC(N2CCN(C3CCN(C(=O)c4cc(C(F)(F)F)cc(C(F)(F)F)c4)C(Cc4ccccc4)C3)CC2)C1 (stereo not shown) [Compound 3]
41 | 7940 nM | 200 nM | Cc1oc(-c2ccccc2)cc1C(=O)N1CCC(N2CCN([C@H]3CCN(C(=O)c4cc(C(F)(F)F)cc(C(F)(F)F)c4)[C@H](Cc4ccccc4)C3)CC2)C1 (stereo partly shown) [Compound 38]

Reference: patent publication US7795261B2, “Substituted 1-piperidin-4-yl-4-pyrrolidin-3-yl-piperazine derivatives and their use as neurokinin antagonists” (Janssen Pharmaceutica NV, priority 2002, dated 2010)
